Results as given in ChEMBL document CHEMBL1201862, “PubChem BioAssay data set” (2004).
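These data come from cells grown in 96-well plates and exposed to compound for 48 hours at five concentrations. GI50 marks 50% less growth.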 Activity calls are given as the source filed them. Rule as the data show it: active = GI50 up to about 1.1 µM and inactive = higher.

Experiments:
Experiment in all cases: NCI tumour cell line growth inhibition, 48 h
786-0 = tested on: 786-0
A549 = tested on: A549
ACHN = tested on: ACHN
DU-145 = tested on: DU-145
HOP-62 = tested on: HOP-62
HOP-92 = tested on: HOP-92
IGROV-1 = tested on: IGROV-1
K562 = tested on: K562
KM12 = tested on: KM12
Malme-3M = tested on: Malme-3M
NCI-H226 = tested on: NCI-H226
NCI-H23 = tested on: NCI-H23
OVCAR-5 = tested on: OVCAR-5
PC-3 = tested on: PC-3
RXF 393 = tested on: RXF 393
SK-MEL-28 = tested on: SK-MEL-28
SK-MEL-5 = tested on: SK-MEL-5
T47D = tested on: T47D
U-251 = tested on: U-251
UACC-62 = tested on: UACC-62

**Q.** With `CC(C)(C)C1(COC(=O)c2ccc(N)cc2)COC1` as the compound, how does the GI50 (786-0) read?
**A.** 73.3 µM (inactive)

**Q.** And the GI50 (A549)?
**A.** 52.6 µM (inactive)

**Q.** What about the GI50 (ACHN) of the same compound?
**A.** 78.7 µM (inactive)

**Q.** What about the GI50 (DU-145) of the same compound?
**A.** > 100 µM (inactive)

**Q.** What about the GI50 (HOP-62) of the same compound?
**A.** > 100 µM (inactive)

**Q.** What about the GI50 (HOP-92) of the same compound?
**A.** > 100 µM (inactive)

**Q.** What about the GI50 (IGROV-1) of the same compound?
**A.** > 100 µM (inactive)

**Q.** What about the GI50 (K562) of the same compound?
**A.** 46.3 µM (inactive)

**Q.** And the GI50 (KM12)?
**A.** 58.5 µM (inactive)

**Q.** What about the GI50 (Malme-3M) of the same compound?
**A.** 89.7 µM (inactive)

**Q.** And the GI50 (NCI-H226)?
**A.** > 100 µM (inactive)

**Q.** And the GI50 (NCI-H23)?
**A.** 66.7 µM (inactive)

**Q.** What about the GI50 (OVCAR-5) of the same compound?
**A.** > 100 µM (inactive)

**Q.** And the GI50 (PC-3)?
**A.** 47.2 µM (inactive)

**Q.** And the GI50 (RXF 393)?
**A.** 72.4 µM (inactive)

**Q.** And the GI50 (SK-MEL-28)?
**A.** > 100 µM (inactive)

**Q.** And the GI50 (SK-MEL-5)?
**A.** 58.7 µM (inactive)

**Q.** What about the GI50 (T47D) of the same compound?
**A.** 24.4 µM (inactive)

**Q.** What about the GI50 (U-251) of the same compound?
**A.** 58.1 µM (inactive)

**Q.** What about the GI50 (UACC-62) of the same compound?
**A.** 55 µM (inactive)

**Q.** For `COC(OC)[C@@H]1OC[C@@H](O)[C@@H]1n1cnc2c(N)ncnc21`, which GI50 (786-0) is on record?
**A.** > 100 µM (inactive)

**Q.** What about the GI50 (ACHN) of the same compound?
**A.** > 100 µM (inactive)

**Q.** And the GI50 (DU-145)?
**A.** > 100 µM (inactive)

**Q.** What about the GI50 (HOP-62) of the same compound?
**A.** > 100 µM (inactive)

**Q.** What about the GI50 (HOP-92) of the same compound?
**A.** > 100 µM (inactive)

**Q.** And the GI50 (IGROV-1)?
**A.** > 100 µM (inactive)

**Q.** What about the GI50 (K562) of the same compound?
**A.** > 100 µM (inactive)

**Q.** And the GI50 (KM12)?
**A.** > 100 µM (inactive)

**Q.** And the GI50 (Malme-3M)?
**A.** > 100 µM (inactive)

**Q.** And the GI50 (NCI-H226)?
**A.** > 100 µM (inactive)

**Q.** And the GI50 (NCI-H23)?
**A.** > 100 µM (inactive)

**Q.** What about the GI50 (OVCAR-5) of the same compound?
**A.** > 100 µM (inactive)

**Q.** What about the GI50 (PC-3) of the same compound?
**A.** > 100 µM (inactive)

**Q.** And the GI50 (RXF 393)?
**A.** > 100 µM (inactive)

**Q.** What about the GI50 (SK-MEL-28) of the same compound?
**A.** > 100 µM (inactive)

**Q.** And the GI50 (SK-MEL-5)?
**A.** > 100 µM (inactive)

**Q.** And the GI50 (T47D)?
**A.** > 100 µM (inactive)

**Q.** What about the GI50 (U-251) of the same compound?
**A.** > 100 µM (inactive)

**Q.** And the GI50 (UACC-62)?
**A.** > 100 µM (inactive)

**Q.** How did the GI50 (786-0) turn out when `CC1=NN2C(=O)CC(=O)N=C2S1` was run?
**A.** > 100 µM (inactive)

**Q.** And the GI50 (A549)?
**A.** > 100 µM (inactive)

**Q.** And the GI50 (ACHN)?
**A.** > 100 µM (inactive)

**Q.** And the GI50 (DU-145)?
**A.** > 100 µM (inactive)

**Q.** What about the GI50 (HOP-62) of the same compound?
**A.** > 100 µM (inactive)

**Q.** And the GI50 (HOP-92)?
**A.** > 100 µM (inactive)

**Q.** What about the GI50 (IGROV-1) of the same compound?
**A.** > 100 µM (inactive)

**Q.** What about the GI50 (K562) of the same compound?
**A.** > 100 µM (inactive)

**Q.** What about the GI50 (KM12) of the same compound?
**A.** > 100 µM (inactive)

**Q.** And the GI50 (Malme-3M)?
**A.** > 100 µM (inactive)

**Q.** And the GI50 (NCI-H226)?
**A.** > 100 µM (inactive)

**Q.** And the GI50 (NCI-H23)?
**A.** > 100 µM (inactive)

**Q.** And the GI50 (OVCAR-5)?
**A.** > 100 µM (inactive)

**Q.** And the GI50 (PC-3)?
**A.** > 100 µM (inactive)

**Q.** And the GI50 (RXF 393)?
**A.** > 100 µM (inactive)

**Q.** What about the GI50 (SK-MEL-28) of the same compound?
**A.** > 100 µM (inactive)

**Q.** What about the GI50 (SK-MEL-5) of the same compound?
**A.** > 100 µM (inactive)

**Q.** What about the GI50 (T47D) of the same compound?
**A.** > 100 µM (inactive)

**Q.** And the GI50 (U-251)?
**A.** > 100 µM (inactive)

**Q.** What about the GI50 (UACC-62) of the same compound?
**A.** > 100 µM (inactive)

**Q.** Which results are given for `Cc1c(O)c(OC2OC(CO)C(O)C(O)C2O)cc2c1CC[C@@H]1C2(C)C(=O)C[C@]2(C)[C@@H]([C@@](C)(O)C(O)/C=C/C(C)(C)O)[C@H](O)C[C@@]12C` (some centres undefined)?
**A.** GI50 (786-0): > 100 µM (inactive); GI50 (A549): > 100 µM (inactive); GI50 (ACHN): > 100 µM (inactive); GI50 (DU-145): > 100 µM (inactive); GI50 (HOP-62): > 100 µM (inactive); GI50 (HOP-92): > 100 µM (inactive); GI50 (IGROV-1): > 100 µM (inactive); GI50 (K562): > 100 µM (inactive); GI50 (KM12): > 100 µM (inactive); GI50 (Malme-3M): > 100 µM (inactive); GI50 (NCI-H226): > 100 µM (inactive); GI50 (NCI-H23): > 100 µM (inactive); GI50 (OVCAR-5): > 100 µM (inactive); GI50 (PC-3): > 100 µM (inactive); GI50 (RXF 393): > 100 µM (inactive); GI50 (SK-MEL-28): > 100 µM (inactive); GI50 (SK-MEL-5): > 100 µM (inactive); GI50 (T47D): > 100 µM (inactive); GI50 (U-251): > 100 µM (inactive); GI50 (UACC-62): > 100 µM (inactive)

**Q.** For `Cc1cnc2nc(-c3sccc3C)cc(O)c2c1`, which GI50 (786-0) is on record?
**A.** 4.1 µM (inactive)

**Q.** And the GI50 (A549)?
**A.** 3.96 µM (inactive)

**Q.** And the GI50 (ACHN)?
**A.** 8.85 µM (inactive)

**Q.** What about the GI50 (DU-145) of the same compound?
**A.** 4.74 µM (inactive)

**Q.** And the GI50 (HOP-62)?
**A.** 5.08 µM (inactive)

**Q.** What about the GI50 (HOP-92) of the same compound?
**A.** 97.3 µM (inactive)

**Q.** What about the GI50 (IGROV-1) of the same compound?
**A.** 1.49 µM (inactive)

**Q.** What about the GI50 (K562) of the same compound?
**A.** 5.04 µM (inactive)

**Q.** What about the GI50 (KM12) of the same compound?
**A.** 3.1 µM (inactive)

**Q.** What about the GI50 (Malme-3M) of the same compound?
**A.** 1.37 µM (inactive)

**Q.** And the GI50 (NCI-H226)?
**A.** 4.14 µM (inactive)

**Q.** What about the GI50 (NCI-H23) of the same compound?
**A.** 3.7 µM (inactive)

**Q.** What about the GI50 (OVCAR-5) of the same compound?
**A.** > 24 µM (inactive)

**Q.** And the GI50 (PC-3)?
**A.** 3.78 µM (inactive)

**Q.** And the GI50 (RXF 393)?
**A.** 3.42 µM (inactive)

**Q.** What about the GI50 (SK-MEL-28) of the same compound?
**A.** 23 µM (inactive)

**Q.** And the GI50 (SK-MEL-5)?
**A.** 1.23 µM (inactive)

**Q.** What about the GI50 (T47D) of the same compound?
**A.** > 100 µM (inactive)

**Q.** What about the GI50 (U-251) of the same compound?
**A.** 4.86 µM (inactive)

**Q.** And the GI50 (UACC-62)?
**A.** 2.59 µM (inactive)

**Q.** What does the source list for `CNc1cccc(-c2cc(O)c3cc4c(cc3n2)OCO4)c1`?
**A.** GI50 (786-0): 0.334 µM (active); GI50 (A549): 0.664 µM (active); GI50 (ACHN): 0.883 µM (active); GI50 (DU-145): 0.303 µM (active); GI50 (HOP-62): 0.409 µM (active); GI50 (HOP-92): 0.533 µM (active); GI50 (IGROV-1): 0.437 µM (active); GI50 (K562): 0.201 µM (active); GI50 (KM12): 0.177 µM (active); GI50 (Malme-3M): 0.168 µM (active); GI50 (NCI-H226): 0.404 µM (active); GI50 (NCI-H23): 0.436 µM (active); GI50 (OVCAR-5): 1.79 µM (inactive); GI50 (PC-3): 0.254 µM (active); GI50 (RXF 393): 0.213 µM (active); GI50 (SK-MEL-28): 0.859 µM (active); GI50 (SK-MEL-5): 0.0847 µM (active); GI50 (T47D): 52 µM (inactive); GI50 (U-251): 0.267 µM (active); GI50 (UACC-62): 0.153 µM (active)

**Q.** With `N#C/C(=C\c1ccc2[nH]ccc2c1)C(=O)c1ccc(O)c(O)c1` as the compound, how does the GI50 (786-0) read?
**A.** 43 µM (inactive)

**Q.** And the GI50 (A549)?
**A.** > 57.7 µM (inactive)

**Q.** And the GI50 (ACHN)?
**A.** 45.8 µM (inactive)

**Q.** What about the GI50 (DU-145) of the same compound?
**A.** 45.7 µM (inactive)

**Q.** And the GI50 (HOP-62)?
**A.** > 52 µM (inactive)

**Q.** And the GI50 (HOP-92)?
**A.** 53 µM (inactive)

**Q.** What about the GI50 (IGROV-1) of the same compound?
**A.** > 88.5 µM (inactive)

**Q.** And the GI50 (K562)?
**A.** 48.4 µM (inactive)

**Q.** And the GI50 (KM12)?
**A.** > 100 µM (inactive)

**Q.** And the GI50 (Malme-3M)?
**A.** > 65.8 µM (inactive)

**Q.** And the GI50 (NCI-H226)?
**A.** > 71.3 µM (inactive)

**Q.** What about the GI50 (NCI-H23) of the same compound?
**A.** > 100 µM (inactive)

**Q.** What about the GI50 (OVCAR-5) of the same compound?
**A.** > 73.8 µM (inactive)

**Q.** And the GI50 (PC-3)?
**A.** > 100 µM (inactive)

**Q.** What about the GI50 (RXF 393) of the same compound?
**A.** > 94 µM (inactive)

**Q.** What about the GI50 (SK-MEL-28) of the same compound?
**A.** > 100 µM (inactive)

**Q.** What about the GI50 (SK-MEL-5) of the same compound?
**A.** > 75.2 µM (inactive)

**Q.** And the GI50 (T47D)?
**A.** 62.8 µM (inactive)

**Q.** What about the GI50 (U-251) of the same compound?
**A.** 41.6 µM (inactive)

**Q.** And the GI50 (UACC-62)?
**A.** 70 µM (inactive)
